Source: patent publication US12520844B2 (Bayer Aktiengesellschaft, priority 2020, dated 2026)

Test: Measurement of Log P values by HPLC on reversed phase columns (EEC directive 79/831 Annex V.A8)
Assay type: physicochemical
Method: Measurement of Log P values as provided herein was performed according to EEC directive 79/831 Annex V.A8 by HPLC (High Performance Liquid Chromatography) on reversed phase columns with the following methods: • ^[a] Log P value is determined by measurement of LC-UV, in an acidic range, with 0.1% formic acid in water and acetonitrile as eluent (linear gradient from 10% acetonitrile to 95% acetonitrile). • ^[b] Log P value is determined by measurement of LC-UV, in a neutral range, with 0.001 molar ammonium acetate solution in water and acetonitrile as eluent (linear gradient from 10% acetonitrile to 95% acetonitrile). • ^[c] Log P value is determined by measurement of LC-UV, in an acidic range, with 0.1% phosphoric acid and acetonitrile as eluent (linear gradient from 10% acetonitrile to 95% acetonitrile).
If more than one Log P value is available within the same method, all the values are given and separated by “+”.
Calibration was done with straight-chain alkan2-ones (with 3 to 16 carbon atoms) with known Log P values (measurement of Log P values using retention times with linear interpolation between successive alkanones). Lambda-max-values were determined using UV-spectra from 200 nm to 400 nm and the peak values of the chromatographic signals

| SMILES | LogP | chromatographic logP |
| --- | --- | --- |
| Cc1ncc(Oc2cccc(C3CC3)c2F)c(C(=O)NC2CCC(C)c3ccccc32)n1 (mixture of isomers) [Compound I-065] | 4.40^[a] | – |
| Cc1ncc(Oc2cccc(C3CC3)c2F)c(C(=O)NC2CCOc3ccc(F)cc32)n1 (racemic) [Compound I-030] | 3.62^[a] | – |
| Cc1ncc(Oc2cccc(C3CC3)c2F)c(C(=O)NCC(F)c2ccc(Cl)c(Cl)c2)n1 (racemic) [Compound I-127] | 4.38^[a] | – |
| O=C(O)c1nc(C2CC2)ncc1Oc1cccc(C(F)(F)F)c1 [Compound 1-03] | 2.49^[a] | – |
| COc1ncc(Oc2cccc(C(F)(F)F)c2)c(C(=O)O)n1 [Compound 1-04] | 1.96^[a] | – |
| CCOC(=O)c1nc(C2CC2)nnc1Oc1cccc(Br)c1F [Compound 1-07] | 3.93^[a] | – |
| C#Cc1cccc(Oc2nnc(C3CC3)nc2C(=O)OCC)c1 [Compound 1-11] | 3.59^[a] | – |
| CCOC(=O)c1nc(C2CC2)nnc1Oc1cccc(OC)c1 [Compound 1-12] | 3.37^[a] | – |
| Cc1ccc(C(F)(F)CNC(=O)c2nc(C3CC3)ncc2Br)c(C)c1 [Compound 3-02] | 4.08^[a] | – |
| Cc1ccc(C(F)(F)CNC(=O)c2nc(C)ncc2Br)c(C)c1 [Compound 3-04, 5-bromo-N-[2-(2,4-dimethylphenyl)-2,2-difluoroethyl]-2-methylpyrimidine-4-carboxamide] | – | 3.25 |
| Cc1ccc(C(F)(F)CNC(=O)c2nc(C)ncc2Oc2cccc(C(F)(F)F)c2)c(C)c1 [Compound I-003] | 4.32^[a] | – |
| Cc1nnc(Oc2cccc(C(F)(F)F)c2)c(C(=O)NCC(F)(F)c2ccc(Cl)cc2)n1 [Compound I-006] | 3.85^[a] | – |
| Cc1nnc(Oc2cccc(C(F)(F)F)c2)c(C(=O)NCC(F)(F)c2ccc(Cl)cc2Cl)n1 [Compound I-007] | 4.20^[a] | – |
| Cc1ccc(C(F)(F)CNC(=O)c2nc(C)ncc2Oc2cccc(C(F)(F)F)c2)c(Cl)c1 [Compound I-008] | 4.37^[a] | – |
| COc1ncc(Oc2cccc(C(F)(F)F)c2)c(C(=O)NCC(F)(F)c2ccc(C)cc2C)n1 [Compound I-009] | 4.46^[a] | – |
| CCc1ncc(Oc2cccc(C(F)(F)F)c2)c(C(=O)NCC(F)(F)c2ccc(C)cc2C)n1 [Compound I-011] | 4.89^[a] | – |
| CSc1ncc(Oc2cccc(C(F)(F)F)c2)c(C(=O)NCC(F)(F)c2ccc(C)cc2C)n1 [Compound I-012] | 4.97^[a] | – |
| Cc1ccc(C(F)(F)CNC(=O)c2nc(C)ncc2Oc2cccc(Cl)c2)c(C)c1 [Compound I-013] | 4.30^[a] | – |
| Cc1ccc(C(F)(F)CNC(=O)c2nc(C3CC3)ncc2Oc2cccc(Cl)c2)c(C)c1 [Compound I-014] | 5.00^[a] | – |
| COc1cccc(Oc2cnc(C)nc2C(=O)NCC(F)(F)c2ccc(C)cc2C)c1 [Compound I-019] | 3.76^[a] | – |
| Cc1ccc(C(F)(F)CNC(=O)c2nc(C)nnc2Oc2cccc(C3CC3)c2)c(Cl)c1 [Compound I-021] | 4.19^[a] | – |
| Cc1ccc(C(F)(F)CNC(=O)c2nc(C)ncc2Oc2cc(F)c(F)cc2F)c(C)c1 [Compound I-026] | 4.02^[a] | – |
| Cc1ccc(C(F)=CNC(=O)c2nc(C3CC3)nnc2Oc2cccc(Br)c2F)c(C)c1 [Compound I-027] | 5.36^[a] | – |
| Cc1nnc(Oc2cccc(C3CC3)c2)c(C(=O)NCC(F)(F)c2ccc(Cl)cc2)n1 [Compound I-028] | 4.01^[a] | – |

Further lines, results first:

| LogP | chromatographic logP | SMILES |
| --- | --- | --- |
| 4.73^[a] | – | Cc1ncc(Oc2cccc(C3CC3)c2F)c(C(=O)NC2CC23CCc2cc(Br)ccc23)n1 (mixture of isomers) [Compound I-091] |
| 4.34^[a] | – | Cc1nnc(Oc2cccc(C(F)(F)F)c2)c(C(=O)NCC(Cl)c2ccc(Cl)cc2Cl)n1 (racemic) [Compound I-020] |
| 3.98^[a] | – | Cc1ncc(Oc2cccc(C3CC3)c2F)c(C(=O)NC2CCSc3ccc(F)cc32)n1 (racemic) [Compound I-125] |
| – | 1.69 | Cc1ncc(Oc2cccc(C(F)(F)F)c2)c(C(=O)O)n1 [Compound 1-01, 2-methyl-5-[3-(trifluoromethyl)phenoxy]pyrimidine-4-carboxylic Acid] |
| – | 3.18 | CCOC(=O)c1nc(C)nnc1Oc1cccc(C(F)(F)F)c1 [Compound 1-02, ethyl 3-methyl-6-[3-(trifluoromethyl)phenoxy]-1,2,4-triazine-5-carboxylate] |
| 3.95^[a] | – | CCOC(=O)c1nc(C2CC2)nnc1Oc1cccc(C(F)(F)F)c1 [Compound 1-05] |
| 3.86^[a] | – | CCOC(=O)c1nc(C2CC2)nnc1Oc1cccc(Cl)c1F [Compound 1-06] |
| 4.19^[a] | – | CCOC(=O)c1nc(C2CC2)nnc1Oc1cccc(C2CC2)c1F [Compound 1-08] |
| 3.78^[a] | – | CCOC(=O)c1nc(C2CC2)nnc1Oc1cccc(C)c1F [Compound 1-09] |
| 3.94^[a] | – | CCOC(=O)c1nc(C2CC2)nnc1Oc1cccc(Br)c1 [Compound 1-10] |
| 1.52^[a] | – | O=C(O)c1nc(F)ncc1Oc1cccc(C(F)(F)F)c1 [Compound 1-13] |
| 3.77^[a] | – | CCc1ncc(Cl)c(C(=O)NCC(F)(F)c2ccc(C)cc2C)n1 [Compound 3-01] |
| 4.05^[a] | – | CSc1ncc(Br)c(C(=O)NCC(F)(F)c2ccc(C)cc2C)n1 [Compound 3-03] |
| – | 4.04 | Cc1ncc(Oc2cccc(C(F)(F)F)c2)c(C(=O)NCC(F)(F)c2ccc(Cl)cc2)n1 [Compound I-002, N-[2-(4-chlorophenyl)-2,2-difluoroethyl]-2-methyl-5-[3-(trifluoromethyl)phenoxy]pyrimidine-4-carboxamide] |
| 4.49^[a] | – | Cc1ncc(Oc2cccc(C(F)(F)F)c2)c(C(=O)NCC(F)(F)c2ccc(Br)cc2Cl)n1 [Compound I-004] |
| – | 4.26 | Cc1nnc(Oc2cccc(C(F)(F)F)c2)c(C(=O)NCC(F)(F)c2ccc(Br)cc2Cl)n1 [Compound I-005, N-[2-(4-bromo-2-chlorophenyl)-2,2-difluoroethyl]-3-methyl-6-[3-(trifluoromethyl)phenoxy]-1,2,4-triazine-5-carboxamide] |
| – | 4.38 | Cc1ccc(C(F)(F)CNC(=O)c2nc(C)ncc2Oc2cccc(C3CC3)c2)c(C)c1 [Compound I-015, 5-(3-cyclopropylphenoxy)-N-[2-(2,4-dimethylphenyl)-2,2-difluoroethyl]-2-methylpyrimidine-4-carboxamide] |
| 2.72^[a] | – | Cc1ncc(Oc2cccc(C3CC3)c2F)c(C(=O)NCCc2ncc(Cl)cn2)n1 [Compound I-016] |
| 3.62^[a] | – | Cc1ncc(Oc2cccc(C3CC3)c2F)c(C(=O)N[C@H]2CCOc3ccc(F)cc32)n1 [Compound I-017] |
| 3.31^[a] | – | Cc1ncc(Oc2cccc(C3CC3)c2F)c(C(=O)NCCc2ccc(C(F)(F)F)cn2)n1 [Compound I-018] |
| 3.40^[a] | – | CC(=O)c1cccc(Oc2cnc(C)nc2C(=O)NCC(F)(F)c2ccc(C)cc2C)c1 [Compound I-022] |
| 4.15^[a] | – | Cc1ccc(C(F)(F)CNC(=O)c2nc(C)ncc2Oc2ccc3ccsc3c2)c(C)c1 [Compound I-023] |
| 4.66^[a] | – | Cc1ccc(C(F)(F)CNC(=O)c2nc(C3CC3)nnc2Oc2cccc(C(F)(F)F)c2)cc1C [Compound I-024] |
| 4.66^[a] | – | Cc1ccc(C(F)(F)CNC(=O)c2nc(C3CC3)nnc2Oc2cccc(Br)c2F)c(C)c1 [Compound I-025] |
| 3.21^[a] | – | Cc1ncc(Oc2cccc(C3CC3)c2F)c(C(=O)NCCc2ccc3[nH]ccc3c2)n1 [Compound I-029] |
